Experimental data reported in patent publication US20190315775A1, “MODIFIED […] AND PHARMACEUTICAL COMPOSITION HAVING SAME AS ACTIVE INGREDIENT” (KEIO UNIVERSITY, priority 2016, published 2019).

Tests used:
[1] = tested on: KATOIII (human stomach cancer cells); experiment: WST-1 proliferation assay (Example 10), KATOIII; type: cell-based; conditions: KATO III, WST-1, 48 hours
Procedure: (§1) Cancer cells used herein were KMS34 (human myeloma cells), HeLa (human cervical cancer cells), HCT116 (human colon cancer cells; p53+/+), KATOIII (human stomach cancer cells), MDA-MB-231 (human breast cancer cells), HT-29 (human colon adenocarcinoma cells), PANC-1 (human pancreatic cancer cells), and Li-7 (human liver cancer cells). Proliferation assay of various cancer cells was performed by the WST-1 method (Cook, J A. & Mitchell, J B., Anal. Biochem., 179, 1-7, 1984) as follows. One μ1 each of PEG11(E)-TC11 and PEG11(O)-TC11 prepared in advance at target concentrations was added into each well of a 96-well microplate. Medium was added to the wells at 50 μl per well, and then mixed by tapping lightly the plate. Subsequently, KMS34 was prepared at a concentration of 5×10^5 cells/ml, and cells other than KMS34 were prepared at a concentration of 2×10^5 cells/ml. Cells were seeded at 50 μl per well (2.5×10^4 cells, 1×10^4 cells), and then incubated in a CO2 incubator (37° C., 5% CO2) for 48 hours. […] Subsequently, the plate was shaken with a plate reader for 1 minute, and then absorbance was measured at 450 nm. At this time, absorbance was also measured at 595 nm as a reference wavelength. The net absorbance was obtained by subtracting the absorbance at the reference wavelength from the absorbance at 450 nm.

[2] = tested on: HCT116 (human colon cancer cells; p53+/+); experiment: WST-1 proliferation assay (Example 10), HCT116; type: cell-based; conditions: HCT-116, WST-1, 48 hours
Procedure: as §1

[3] = tested on: high-risk MM cells (KMS34); experiment: WST-1 proliferation assay (Example 11), KMS34; type: cell-based, human; conditions: WST-1, 48 hours, FIG. 6
Procedure: (§2) Proliferation assay of cancer cells and normal cells was performed using WST-1 as follows. One μ1 each of PEG11(E)-TC11 and TC11 prepared at target concentrations was added to each well of a 96-well microplate. Medium was added to the wells at 50 μl per well, and then mixed by tapping lightly the plate. Next, high-risk MM cells (KMS34) prepared at 5×10^5 cells/ml and bone marrow stromal cell-derived normal cells (WT) prepared at 2×10^5 cells/ml were seeded at 50 μl (2.5×10^4 cells and 1×10^4 cells, respectively) per well, and then incubated in a CO2 incubator (37° C., 5% CO2) for 48 hours. Ten (10) μ1 each of cell proliferation reagent WST-1 (Roche) was added to each well after incubation, and then the resultants were mixed by lightly tapping the plate, followed by 1 hour of reaction in the CO2 incubator. Subsequently, the plate was shaken with a plate reader for 1 minute, and then absorbance was measured at 450 nm. At this time, absorbance was also measured at 595 nm as a reference wavelength. The net absorbance was obtained by subtracting the absorbance at the reference wavelength from the absorbance at 450 nm.

MUM24 cells = experiment: Cell cycle, DNA content by flow cytometry; type: cell-based, human; conditions: MUM24, 3 μM, 12, 24 and 36 hours
Procedure: The present inventors have reported that when HeLa cells of a human cervical cancer-derived cell line are treated with TC11, multipolarization and then multinucleation take place (Shiheido, H. et al., PLoS One, 7: e38878, 2012). The present inventors have also reported in the same paper α-tubulin and NPM1 as binding molecules for TC11. Next, intracellular DNA content was measured using flow cytometry in order to examine the effects of TC11 and its derivative, PEG11(E)-TC11 on cell cycle. More specifically, MUM24 was adjusted at 4.0×10^5 cells/mL, 1.95 mL each of MUM24 was seeded to a 6-well plate. From the next day, TC11 and PEG11(E)-TC11 were added in such a manner that the final concentrations were 0 and 3 μM, respectively, and then cells were cultured at 37° C. for 12, 24, and 36 hours. Each cell was collected, and then washed with PBS. 70% EtOH ([…]) was added and then the resultant was left to stand overnight at −30° C. After washing with PBS, […] of citrate-phosphate buffer was added, and then the resultant was left to stand at room temperature for 30 minutes, thereby eluting fragmented DNA. […] Fluorescence intensity was measured using BD FACS Calibur (Trademark) (Becton, Dickinson and company, New Jersey, USA). Wavelengths for measurement were an excitation wavelength of 488 nm, and a fluorescence wavelength of 610±10 nm.

[4] = tested on: bone marrow stromal cell-derived normal cells (WT); experiment: WST-1 proliferation assay (Example 11), normal cells; type: cell-based; conditions: WST-1, 48 hours, FIG. 6
Procedure: as §2

[5] = tested on: Li-7 (human liver cancer cells); experiment: WST-1 proliferation assay (Example 10), Li-7; type: cell-based; conditions: U-7 (head of Table 4), WST-1, 48 hours
Procedure: as §1

[6] = tested on: MDA-MB-231 (human breast cancer cells); experiment: WST-1 proliferation assay (Example 10), MDA-MB-231; type: cell-based; conditions: WST-1, 48 hours
Procedure: as §1

[7] = tested on: high-risk MM cells (MUM24); experiment: Apoptosis induction, Annexin V/PI flow cytometry; type: cell-based, human; conditions: MUM24, 10 μM, 24, 48 and 72 hours
Procedure: For observation of apoptosis induction caused by drugs, TC11 and PEG11(E)-TC11, one type of MM cells, MUM24 cells were treated with TC11 and PEG11(E)-TC11, Annexin V/PI staining was performed, and then analysis was conducted using a flow cytometer. More specifically, MUM24 was adjusted at 2.0×10^5 cells/mL, and then 1.95 mL each thereof was seeded to a 6-well plate. From the next day, TC11 and PEG11(E)-TC11 were added in such a manner that the final concentrations were 0, and 10 μM, and then cells were cultured at 37° C. for 24, 48, and 72 hours. Each cell (1.5 ml each) was collected, and then washed twice with Phosphate Buffered Saline (PBS, Sigma-Aldrich). Subsequently, each resultant was suspended again in a solution prepared by adding 5 μL of Annexin V-FITC and 5 μL of Propidium Iodide (PI) to 500 μL of 1×Binding Buffer in Annexin V-FITC Apoptosis Detection Kit (Bio Vision, California, USA), and then left to stand in the dark for 5 minutes. Fluorescence intensity was measured using BD™ LSR II Flow Cytometer (Becton, Dickinson and company, New Jersey, USA). Wavelengths to be measured were excitation wavelength of 488 nm, and fluorescence wavelengths of 530±15 nm for Annexin V-FITC and 610±10 nm for PI.

[8] = tested on: HeLa (human cervical cancer cells); experiment: WST-1 proliferation assay (Example 10), HeLa; type: cell-based; conditions: WST-1, 48 hours
Procedure: as §1

Row | SMILES | IC50 [1] [µM] | IC50 [2] [µM] | Proliferation inhibitory activity against high-risk MM cells (KMS34) [3] | Effect on cell cycle (proportion of tetraploid cells) (MUM24 cells) | Proliferation inhibitory activity against bone marrow stromal cell-derived normal cells (WT) [4] | IC50 [5] [µM] | IC50 [6] [µM] | Apoptosis induction (Annexin V+/PI− and Annexin V+/PI+ fractions) [7] | IC50 [8] [µM]
1 | COCCOCCOCCOCCOCCOCCOCCOCCOCCOCCOCCOCCC(=O)OCCOc1cc2c(cc1N)C(=O)N(c1c(C(C)C)cccc1C(C)C)C2=O [PEG11(E)-TC11] | 7.9 | 9 | significant proliferation inhibitory activity | induce cell death by causing G2/M phase arrest | no proliferation inhibitory activity | 9.4 | 11 | clearly induce apoptosis | 5.4
2 | CC(C)c1cccc(C(C)C)c1N1C(=O)c2ccc(N)cc2C1=O [TC11, 2-(2,6-di-isopropylphenyl)-5-amino-1H-isoindole-1,3-dione, reference compound] | – | – | significant proliferation inhibitory activity | induce cell death by causing G2/M phase arrest | no proliferation inhibitory activity | – | – | clearly induce apoptosis | –
3 | COCCOCCOCCOCCOCCOCCOCCOCCOCCOCCOCCOCCOc1cc2c(cc1N)C(=O)N(c1c(C(C)C)cccc1C(C)C)C2=O [PEG11(O)-TC11] | 21 | 34.5 | – | – | – | 87 | 80 | – | 18.1
